Patent US20180256537A1, “METHODS FOR SURVIVAL AND REJUVENATION OF DERMAL FIBROBLASTS USING PKC ACTIVATORS” (priority 2015, published 2018)
Read-outs that look alike come from different tables or passages of the source.

Key:
PKC [1] = conditions: cited from earlier work
human skin fibroblasts [2] = test: Protection of human skin fibroblasts under serum starvation (microscopy); type: cell-based; conditions: for viability and cellular integrity, with or without Erk inhibitor: serum deprived culture 5 days
Procedure: Skin fibroblast samples AG09555 (isolated and banked from a healthy person) and AG04560 (isolated and banked from a healthy person; Aging Cell Culture Repository of the National Institute on Aging) were obtained from the Coriell Institute for Medical Research (Camden, N.J.). Fresh fibroblasts were isolated from a skin punch biopsy (2-3 mm, upper arm) from a healthy subject (0078F45). The skin biopsy was conducted by qualified personnel under the supervision of Dr. Shirley Neitch with IRB approval of Marshall University (Huntington, W. Va.). All subjects signed informed consent forms under Marshal University rules and regulations. The method for isolating fibroblasts from skin biopsies was similar to the method previously described (Zhao et al, 2002; Khan and Alkon, 2006).
(§1) Primary skin fibroblasts isolated from skin biopsies were maintained in Dulbecco's Modified Eagle Medium (DMEM) with low glucose (Invitrogen, Grand Island, N.Y.) supplemented with 10% FBS in 6-well culture dishes (37° C., 5% CO2, 90% humidity) until the cells reached 90-100% confluence. Cells were cultured in completely serum-free medium to simulate stress conditions. After culture in serum-free media for 24 hours, cells were treated with vehicle, 0.3 nM bryostatin1, or 5 nM picolog. […] Nanomolar concentrations of picolog were previously found to be effective for cellular activation (Khan et al, 2009). The condition of the cultured skin fibroblasts was monitored with an inverted cell culture microscope (Westover Digital AMID Model 2000, Westover Scientific, Bothell, Wash.), controlled by a computer and images were captured with image acquisition software (Micron 2.0.0, Westover Scientific).

Erk1/2 [3] = test: Immunoblot analysis of Erk activation in serum-deprived fibroblasts; type: cell-based, human
Procedure: as §1
(§2) Protein lysates (20 μg of protein each) were boiled in 2× Laemmli buffer for 10 min and separated using a 10% […] Tris-Glycine gel (or 4-20% gradient Tris-Glycine gel for caspase-8). […] Signal intensities of the images were recorded in the ImageQuant RT-ECL (GE Life Sciences, Piscataway, N.J.) and densitometric quantification was performed using the IMAL software (Blanchette Rockefeller Neurosciences Institute, Morgantown, W. Va.). […]

protein kinase C = conditions: (−)-enantiomer; cited from earlier work
[4] = cited from earlier work
caspase-8 = test: Immunoblot analysis of caspase-8 expression in dermal fibroblasts; type: cell-based, human
Procedure: as §1, §2

[5] = tested on: human skin equivalents (HSEs); test: Cell survival within human skin equivalents (HSEs); type: cell-based
Procedure: The Clonetics™ keratinocyte system containing normal adult human epidermal keratinocytes (NHEK) was used as source of epidermal keratinocytes (Lonza, Walkersville, Md.). Human adult epidermal keratinocyte cells were cultured in keratinocyte basal medium supplemented with appropriate growth factors (Clonetics KGM-Gold™ BulletKit™ [cat#00192060] contains one 500 ml bottle of keratinocyte basal medium-gold supplemented with bovine pituitary extract (BPE), 2 ml; hEGF, 0.5 ml; insulin, 0.5 ml; hydrocortisone, 0.5 ml; transferrin, 0.5 ml; epinephrine, 0.25 ml; GA-1000, 0.5 ml) in T25 culture flasks in an incubator at 37° C., 5% CO2, and 90% humidity. The growth medium was changed the day after seeding and every other day thereafter. Keratinocytes were used up to 18 population doublings. All cell preparations tested negative for mycoplasma, bacteria, yeast, and fungi. The condition of the skin keratinocytes was monitored with an inverted cell culture microscope (Westover Digital AMID Model 2000, Westover Scientific), controlled by a computer and images were captured using image acquisition software (Micron 2.0.0, Westover Scientific).
HSEs have been used commercially as clinical skin substitutes (Orcel® from FortiCell Bioscience, Englewood Cliffs, N.J.; FDA approved in 2001/2008; Apligraf® from Genzyme Tissue Repair Corporation, Cambridge, Mass., FDA approved in 2007) and as in vitro models for skin biochemical tests and toxicity tests (Mertsching et al, 2008; Zhang and Michniak-Kohn, 2012). We engineered an HSE composed of both epidermal and dermal layers; keratinocytes and fibroblasts were utilized to prepare the bilayer structures (Shevchenko et al, 2010). Dermal fibroblasts were cultured on a 6-well collagen-coated surface (Biocoat Cell Environment, Becton Dickinson, Bedford, UK) or BD BIOCOAT™ plates (BD Biosciences, San Jose, Calif.). Fibroblast cells were maintained in DMEM with low glucose (Invitrogen) supplemented with 10% FBS, and were grown to 100% confluence. Culture medium was removed and the cells were washed three times with DMEM (without serum) to remove all growth factors. Previously cultured epidermal keratinocytes were added to the fibroblasts as the second layer (FIG. 1). […] The condition of the HSEs was monitored with an inverted cell culture microscope (Westover Digital AMID Model 2000, Westover Scientific), controlled by a computer and images were captured via image acquisition software (Micron 2.0.0, Westover Scientific).

[6] = tested on: matrix metalloproteins 1, 3, 9, 10 and 11 (MMP's); conditions: cited from earlier work
[7] = cited from earlier work; remark: listed apart in the source
NCI 60 cell line screen = conditions: cited from earlier work
Erk1/2 [8] = conditions: RasGRP3-dependent manner; cited from earlier work
PKC [9] = conditions: [3H] phorbol dibutyrate competition; cited from earlier work
human skin fibroblasts [10] = test: Cell viability test by MTT assay; type: cell-based; conditions: 5 nM, serum starvation 15 days, versus untreated cells
Procedure: as §1
Cell viability assay was conducted by measuring 3-(4,5-dimethylthiazol-2-yl)-2,5-diphenyltetrazolium (MTT) bromide dye absorbance. After treatment, cells were labeled with MTT and dissolved by adding SDS-HCl solution to each well and mixing thoroughly with a pipette tip. Absorbance was read at 570 nm using a microplate reader. Data were presented in terms of relative cell viability.

[11] = tested on: squamous cell carcinoma and melanoma; conditions: used topically; cited from earlier work
PKC [12] = conditions: Table 1, bryologs; read-out: PKC Affin; cited from earlier work

CCC1CC1CC1CC1CC1CC1CC1CC1CC1CC1CC1CC1CCC(=O)OC (centres unmarked) [DHA-CP6, cyclopropanated docosahexaenoic acid methyl ester]
effective concentration (PKC [1]): 10 nM

COc1cccc(-c2cc(=O)c3ccccc3o2)c1N [PD98059]
viability and cellular integrity, with or without Erk inhibitor (human skin fibroblasts [2]): lowered the cell protective effects of bryostatin-1
effect on bryostatin-1 induced Erk activation (Erk1/2 [3]; PD98059 30 μM with bryostatin-1): significantly blocked

Octylindolactam V
EC50 (protein kinase C): 29 nM

CCC/C=C/C=C/C(=O)O[C@H]1/C(=C/C(=O)OC)C[C@H]2C[C@H]([C@@H](C)O)OC(=O)C[C@H](O)C[C@@H]3C[C@H](OC(C)=O)C(C)(C)[C@](O)(C[C@@H]4C/C(=C/C(=O)OC)C[C@H](/C=C/C(C)(C)[C@]1(O)O2)O4)O3 [Bryostatin-1]
time detectable in the blood ([4]; after a single injection): 14 days
half-life (t1/2) in the blood stream ([4]; blood): 1 h
crossing of the blood-brain barrier ([4]; in vivo): crosses the blood-brain barrier
share of initial dose in the blood ([4]; intravenous injection, at 100 hrs): 1%

CCC/C=C/C=C/C(=O)O[C@H]1/C(=C/C(=O)OC)C[C@H]2C[C@H]([C@@H](C)O)OC(=O)C[C@H](O)C[C@@H]3C[C@H](OC(C)=O)C(C)(C)C(O)(C[C@@H]4C/C(=C/C(=O)OC)C[C@H](/C=C/C(C)(C)[C@]1(O)O2)O4)O3 [Bryostatin-1]
cellular integrity of freshly isolated fibroblasts (human skin fibroblasts [2]; 0.3 nM, 5 days serum-free, 6-well plates): healthy and appear to be normal
percentage of viable fibroblasts (human skin fibroblasts [2]; 0.3 nM, 5 days serum-free, treated versus control group): lower percentage of viable fibroblast in the control group
loss of dermal fibroblast cells (human skin fibroblasts [2]; 0.3 nM, 15 days serum free culture): no significant loss of dermal fibroblast cells
structural integrity and number of viable cells (human skin fibroblasts [2]; 0.3 nM, 35 days serum free culture, versus control group): greater structural integrity and a higher number of live, viable cells
cellular integrity of collagen matrix supported fibroblasts (human skin fibroblasts [2]; 25 days serum-starved): maintains the cellular integrity
viability and cellular integrity, with or without Erk inhibitor (human skin fibroblasts [2]): showed the greatest viability and good cellular integrity
survival of banked skin fibroblasts (human skin fibroblasts [2]; sub-nanomolar amounts, 20 days serum starved): prevented the death of human skin fibroblasts
activation of Erk1/2 (p-Erk/Erk) (Erk1/2 [3]; 0.3 nM, serum-free conditions): induced activation of Erk1/2
caspase-8 expression levels, time course (caspase-8; after 3 days of treatment): greatest decrease
caspase-8 expression levels in cell lysate (caspase-8; treated versus control fibroblasts): reduced expression levels of caspase-8
protective effect in HSEs over time ([5]; 9 days versus 12 days in culture): decreases as a function of time
fibroblast survival and viability in HSEs versus untreated ([5]; single dose and two dose treated HSEs): significantly greater
fibroblast cell death in HSEs ([5]; single treatment 0.3 nM, versus untreated HSEs): showed fewer dead fibroblast cells overall
survival of fibroblast cells in HSEs, two doses versus single dose ([5]; two doses (0.3 nm) versus single 0.3 nM dose): greater than fibroblasts in HSEs receiving a single 0.3 nM dose
production of matrix metalloproteins 1, 3, 9, 10 and 11 [6]: inhibits the production
toxicity ([7]; 20 μg/week): no toxicity
adverse effect ([7]; more than 35 μg/week): may be associated with muscle pain

CC1=CC[C@H](C)C(C)(C)[C@@H]1/C=C/C(C)=C/CC[C@@]1(CO)[C@H](CCCO)/C(=C(/C)C=O)CC[C@]1(C)O [Iripallidal]
GI50 (concentration required to inhibit growth by 50%) (NCI 60 cell line screen): micromolar to nanomolar range
phosphorylation of Erk1/2 (Erk1/2 [8]): induces phosphorylation of Erk1/2

CC1=C[C@]23C(=O)[C@@H](C=C(COC(=O)c4ccccc4)[C@@H](O)[C@]2(O)[C@H]1OC(=O)c1ccccc1)[C@H]1[C@@H](C[C@H]3C)C1(C)C [Ingenol 3,20-dibenzoate]
Ki (PKC [9]): 240 nM

CCCCCCCC(=O)O[C@H]1/C(=C/C(=O)OC)CC2C[C@H](CO)OC(=O)C[C@H](O)C[C@@H]3CCC[C@H](C[C@@H]4CCO[C@H](/C=C/C(C)(C)[C@]1(O)O2)O4)O3 [picolog]
cell survival of human skin fibroblasts (human skin fibroblasts [2]; 5 nM, serum free, 15 days): increased cell survival
relative cell viability (MTT) (human skin fibroblasts [10]): increased the relative viability of fibroblast cells

C/C=C(/C)C(=O)O[C@H]1C(C)=C[C@]23C(=O)[C@@H](C=C(CO)[C@@H](O)[C@]12O)[C@H]1[C@@H](C[C@H]3C)C1(C)C [Ingenol-3-angelate]
antitumor activity [11]: exhibits antitumor activity

CCCCCCCC(=O)O[C@H]1/C(=C/C(=O)OC)C[C@H]2C[C@H](CO)OC(=O)C[C@H](O)C[C@@H]3CCC[C@H](C[C@@H]4CCO[C@H](/C=C/C(C)(C)[C@]1(O)O2)O4)O3 [Analog 1]
Ki (PKC [12]): 0.25 nM
